# Key:
# [1] = tested on: hES cells (e.g., BGO2 cells); test: Low-density colony forming / colony counting assay (AP+ colonies); assay type: cell-based, human
# Method: FIG. 2. Low density plating assay of hES cells (e.g., BGO2 cells). 10000 cells/well were plated in 6-well trays in StemPro® hESC SFM (Life Technologies) medium and stained with alkaline phosphatase (AP+) after 7 days. Y (Y27632), ACh (acetylcholine), NMDA (N-methyl-D-aspartic acid), NE ((−)-Norepinephrine), NE.Bit ((±)-Norepinephrine (+)-bitartrate). Compounds were added at 10 or 50 μM as indicated.
# FIG. 3. Low density plating assay of hES cells. (A) 200-10000 cells/well were plated in […] trays in StemPro® hESC SFM medium, or StemPro® hESC SFM +50 μM NE, or +50 μM ACh, and stained with alkaline phosphatase (AP+) after 8 days. […] ACh (acetylcholine), NE ((±)-Norepinephrine (+)-bitartrate). […]
# About 10^4 hES cells/well were plated in 6-well trays in StemPro® hESC SFM, in the presence of different compounds and cultured for about 7 days. The cultures were then fixed, stained for alkaline phosphatase activity and colonies were counted (FIG. 2). […] The (±)-Norepinephrine (+)-bitartrate salt was used for all subsequent experiments involving norepinephrine (NE) unless specifically described otherwise.
# A similar colony counting experiment was performed using a range of cell densities (FIG. 3). […] See Robins and Schulz 2009, supra. […]
# CyT49 cells = test: Suspension aggregate culture, cell counts and aggregate diameters; assay type: cell-based, human; conditions: for serial passages maintained in suspension with undifferentiated morphology: suspension culture, 50 μM
# Method: FIG. 10. Effects of NE and ACh in suspension culture of hES cell. (A) 5×10^6 CyT49 cells were seeded in 5 ml StemPro® hESC SFM containing heregulin, LR3-IGF1, Activin and the indicated neurotransmitters at 50 μM in low-attachment 6-well trays and placed at 100 rpm. Undifferentiated suspension aggregates were imaged on day 4. (B) 24 hours after seeding, two wells from each condition were harvested and counted to determine the number of viable cells. (C) Cell counts of each condition when the cultures were split on day 4. (D) The images in (A) were used to determine aggregate diameters using the ImagePro software measurement tool. Average diameters and standard deviations from 50-100 aggregates from each condition are shown. (E) Passage 1 cell counting data. 5×10^6 CyT49 hES cells from p0 cells in (A) were seeded into the same conditions. The aggregates in the condition containing Y27632 were larger and had to be passaged 3 days after seeding, before the centers of the largest aggregates became necrotic. Conversely, the other conditions could be cultured for 6 days before passaging, resulting in higher cell counts.
# FIG. 11. Suspension hES cell cultured with NE, […] remain undifferentiated. CyT49 cells were grown as suspension aggregates in the presence of NE, […] for 16 passages without differentiating morphologically. After p10, some cells were re-plated to adherent culture and examined by karyotyping and immunofluorescent staining for OCT4 and Tra-1-61. All cultures remained undifferentiated and expressed these pluripotency markers uniformly. (SP) StemPro® SFM HIA, NE (+NE at 50 μM), ACh (+ACh at 50 μM), NE/ACh (+NE/ACh at 50 μM). Karyotype data is shown to the right. […] Cultures containing ACh were aneuploid.
# Small molecule ligands that support survival or self-renewal at low cell densities could also be expected to have beneficial effects in other culture formats. Applicants have previously developed a suspension culture system for hES cells that enables serial propagation of cells and effective expansion of cultures. Human ES cells, at least BG02 and CyT49 cells, have been maintained in suspension for greater than 10 passages without differentiation. The basis of the technique is to dissociate cultures to single cells with reagents that preserve high viability, such as Accutase™, TrypLE or cell dispersal buffer, then aggregate defined concentrations of cells in defined medium in rotational culture. These methods are described in more detail in International Application PCT/US2008/082356, entitled STEM CELL AGGREGATE SUSPENSION COMPOSITIONS AND METHODS OF DIFFERENTIATION THEREOF, filed Nov. 4, 2008; and International Application PCT/US2007/062755, entitled COMPOSITIONS AND METHODS FOR CULTURING DI[…], filed Feb. 23, 2007, which are herein incorporated by reference in their entireties. Self-aggregation of hES cells occurs in the absence of added extracellular matrix (ECM) or ECM-like proteins and is presumed to be driven in part by homotypic interaction of E-cadherin. The aggregates that are formed expand over 3-4 days and are kept apart from each other by the shear forces generated by rotational culture. Cells are blocked from differentiating by the self-renewal signaling provided by the defined medium and retain their pluripotent characteristics: marker expression, normal karyotype, and differentiation potential in vitro and in teratomas. […]
structure (smiles),measurement,setting,value
"NCC(O)c1ccc(O)c(O)c1 (racemic) [NE, (±)-Norepinephrine (+)-bitartrate]",colonies detected compared to StemPro hESC SFM medium alone,"[1]; 50 μM, 200-10000 cells/well, 8 days",More than four times as many colonies
same,fewest plated cells per well at which colonies were observed,"[1]; 50 μM, 8 days",1000 plated cells
same,support of colony formation at low density,"[1]; 10^4 cells/well, StemPro hESC SFM, 7 days, compounds at 10 or 50 μM",supported elevated colony formation
same,serial passages maintained in suspension with undifferentiated morphology,CyT49 cells,12 serial passages
same,aggregate size on day 4,"CyT49 cells; suspension, StemPro hESC SFM HIA, neurotransmitters 50 μM",smaller aggregates
"CC(=O)OCC[N+](C)(C)C [ACh, acetylcholine]",fewest plated cells per well at which colonies were observed,"[1]; 50 μM, 8 days",500 plated cells
same,serial passages maintained in suspension with undifferentiated morphology,CyT49 cells,12 serial passages

# — patent US8685726B2, “Small molecules supporting pluripotent cell growth and methods thereof” (Viacyte, Inc., priority 2009, dated 2014)
